Test results published in patent publication US9963496B2, “Stable glucagon analogues and use for treatment of hypoglycaemia” (Novo Nordisk A/S, priority 2014, dated 2018).
*1 amine or outer side, *2 acyl side, *3 side chain or, on linkers, in order; H or OH if unused. Where a SMILES comes first, the peptide text is derived from it. Side-chain parts run from the residue outwards. The star is where a group is joined. γGlu = O=C(O)[C@H](CCC(=O)[*:2])N[*:1]; Desaminohistidyl = O=C(CCc1c[nH]cn1)*

Assays:
human glucagon receptor = molecular target: T1, human glucagon receptor (Homo sapiens, UniProt P47871); experiment: Assay (I)(b): glucagon receptor activation, CRE luciferase reporter gene assay in BHK cells; type: cell-based; settings: BHK cells expressing human glucagon receptor and CRE luciferase, 3 h incubation; read-out: EC50 hGlucagonR
T1 construct: expressed in transfected cells; host or cells: BHK cells, clone BHK hGCGR A3*25; isolated membranes
T1 sequence (P47871 26-477): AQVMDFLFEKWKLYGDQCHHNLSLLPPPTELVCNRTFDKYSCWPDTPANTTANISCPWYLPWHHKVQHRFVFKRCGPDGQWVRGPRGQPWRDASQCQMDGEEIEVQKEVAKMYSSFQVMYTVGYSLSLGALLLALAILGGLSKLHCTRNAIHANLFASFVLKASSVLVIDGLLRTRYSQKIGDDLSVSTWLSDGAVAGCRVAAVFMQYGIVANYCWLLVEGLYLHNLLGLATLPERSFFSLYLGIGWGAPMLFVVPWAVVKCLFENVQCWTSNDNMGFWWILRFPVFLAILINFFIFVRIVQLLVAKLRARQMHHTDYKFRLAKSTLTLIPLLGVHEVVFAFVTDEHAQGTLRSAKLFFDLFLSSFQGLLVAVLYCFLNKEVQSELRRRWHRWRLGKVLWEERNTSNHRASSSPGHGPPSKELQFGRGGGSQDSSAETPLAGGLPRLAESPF
Description: The purpose of this assay is to test the activity, or potency, of the derivatives of the invention, in vitro. The in vitro potency is the measure of human GLP-1 receptor and/or glucagon receptor activation, respectively, in a whole cell assay.
In vitro potency was determined by measuring the response of human GLP-1 or glucagon receptor, respectively, in a reporter gene assay. The assay was performed in a stably transfected BHK cell line that expressed either the human GLP-1 receptor or the human glucagon receptor and contained the DNA for the cAMP response element (CRE) coupled to a promoter and the gene for firefly luciferase (CRE luciferase). […] When assay incubation was completed, the luciferase substrate (luciferin) was added and the enzyme converted luciferin to oxyluciferin and produced bioluminescence. The luminescence was measured as the readout for the assay.
(b) Glucagon Receptor Activation
The cells used in this assay (clone pLJ6′-4-25) were BHK cells with BHK570 as a parent cell line expressing the CRE luciferase gene (clone BHK/KZ10-20-48) and were established by further transfection with the human glucagon receptor (clone pLJ6′ in pHZ-1 vector).
The cells were cultured at 5% CO2 in DMEM medium with 10% FBS, 1× GlutaMAX, 1 mg/mL G418, 240 nM MTX (methotrexate) and 1% pen/strep (penicillin/streptomycin). They were aliquoted and stored in liquid nitrogen. Before each assay, an aliquot was taken up and washed three times in PBS before being suspended at the desired concentration in assay buffer. For 96-well plates the suspension was made to give a final concentration of 5×10 EE3 cells/well.
Assay Medium consisted of DMEM w/o phenol red, 10 mM Hepes, lx GlutaMAX, 2% Ovalbumin and 0.2% Pluronic F-68.
Cell stocks were thawed in a 37° C. water bath. Cells were washed three times in PBS. The cells were counted and adjusted to 5×10 EE3 cells/50 μl (1×10 EE5 cells/mL) in Assay Medium. A 50 μl aliquot of cells was transferred to each well in the assay plate.
Stocks of the test compounds and reference compounds were diluted to a concentration of […] in Assay Medium. Compounds were diluted 10-fold to give the following concentrations: […], 2×10 EE-7 M, 2×10 EE-8 M; 2×10 EE-9 M, 2×10 EE-10 M, 2×10 EE-11 M, 2×10 EE-12 M and 2×10 EE-13 M. For each compound a blank assay buffer control was also included.
A 50 μl aliquot of compound or blank was transferred from the dilution plate to the assay plate. Compounds were tested at the following final concentrations: 1×10 EE-6 M, 1×10 EE-7 M, 1×10 EE-8 M; 1×10 EE-9 M, 1×10 EE-10 M, 1×10 EE-11 M and 1×10 EE-12 M and 1×10 EE-13 M.
The assay plate was incubated for 3 h in a 5% CO2 incubator at 37° C. The assay plate was removed from the incubator and allowed to stand at room temperature for 15 min. A 100 μl aliquot of steadylite plus reagent was added to each well of the assay plate (reagent is light sensitive). Each assay plate was covered with aluminum foil to protect it from light and shaken for 30 min at room temperature. Each assay plate was read in a Packard TopCount NXT instrument.
The data from the TopCount instrument was transferred to GraphPad Prism software. The software performed a non-linear regression (log(agonist) vs response-Variable slope (four parameter)). EC50 values were calculated by the software and reported in pM.

physchem = type: physicochemical; settings: pH 7.5
From the text: Assay (III): ThT Fibrillation Assay for the Assessment of Physical Stability of Peptide Compositions The purpose of this assay is to assess the physical stability of the glucagon derivatives of the invention in aqueous solutions. Low physical stability of a peptide may lead to amyloid fibril formation, which is observed as well-ordered, thread-like macromolecular structures in the sample, which eventually may lead to gel formation. This has traditionally been measured by visual inspection of the sample. However, that kind of measurement is very cumbersome and depending on the observer. Therefore, the application of a small molecule indicator probe is much more advantageous. Thioflavin T (ThT) is such a probe and has a distinct fluorescence signature when binding to fibrils [Naiki et al. (1989) Anal. Biochem. 177, 244-249; LeVine (1999) Methods. Enzymol. 309, 274-284]. Here, as depicted in FIG. 1, F is the ThT fluorescence at the time t. The constant t0 is the time needed to reach 50% of maximum fluorescence. The two important parameters describing fibril formation are the lag-time calculated by t0−2τ and the apparent rate constant kapp 1/τ. Samples were prepared freshly before each assay. Each sample composition is described in the legends. The pH of the sample was adjusted to the desired value using appropriate amounts of concentrated NaOH and HCl. Thioflavin T was added to the samples from a stock solution in H2O to a final concentration of 1 μM. Sample aliquots of 200 μl (250 μM of the glucagon derivative/analogue in 10 mM HEPES buffer, pH 7.5) were placed in a 96 well microtiter plate (Packard OptiPlate™-96, white polystyrene). Usually, four or eight replica of each sample (corresponding to one test condition) was placed in one column of wells. The plate was sealed with Scotch Pad (Qiagen). Incubation at given temperature, shaking and measurement of the ThT fluorescence emission were done in a Fluoroskan Ascent FL fluorescence platereader (Thermo Labsystems). The plate was incubated 37° C. with orbital shaking adjusted to 960 rpm with an amplitude of 1 mm. Fluorescence measurement was done using excitation through a 444 nm filter and measurement of emission through a 485 nm filter. Each run was initiated by incubating the plate at the assay temperature for 10 min. The plate was measured every 20 minutes for a desired period of time. Between each measurement, the plate was shaken and heated as described. After completion of the ThT assay the four or eight replica of each sample was pooled and centrifuged at 20000 rpm for 30 minutes at 18° C. The supernatant was filtered through a 0.22 μm filter and an aliquot was transferred to a HPLC vial. The concentration of peptide in the initial sample and in the filtered supernatant was determined by reverse phase HPLC using an appropriate standard as reference. The percentage fraction the concentration of the filtered sample constituted of the initial sample concentration was reported as the recovery. The measurement points were saved in Microsoft Excel format for further processing and curve drawing and fitting was performed using GraphPad Prism. The background emission from ThT in the absence of fibrils was negligible. The data points were typically a mean of four or eight samples and shown with standard deviation error bars. Only data obtained in the same experiment (i.e. samples on the same plate) were presented in the same graph ensuring a relative measure of fibrillation between experiments. The data set may be fitted to Eq. (1).

| SMILES | EC50 (human glucagon receptor) [pM] | recovery at 250 μM (physchem) [%] |
| --- | --- | --- |
| CC(=O)N[C@@H](CCC(=O)N[C@@H](CCC(=O)N[C@@H](CCC(=O)N[C@@H](CCC(=O)NCCCC[C@H](NC(=O)[C@H](CC(C)C)NC(=O)[C@H](CC(C)C)NC(=O)[C@H](Cc1c[nH]c2ccccc12)NC(=O)[C@H](CCC(N)=O)NC(=O)[C@@H](NC(=O)[C@H](Cc1ccccc1)NC(=O)[C@H](CCC(=O)O)NC(=O)[C@H](CCC(N)=O)NC(=O)[C@H](C)NC(=O)[C@H](CCCNC(=N)N)NC(=O)[C@H](CCCNC(=N)N)NC(=O)[C@H](CO)NC(=O)[C@H](CCC(=O)O)NC(=O)[C@H](CC(C)C)NC(=O)[C@H](Cc1ccc(O)cc1)NC(=O)[C@H](CCCCN)NC(=O)[C@H](CO)NC(=O)[C@H](Cc1ccc(O)cc1)NC(=O)[C@H](CC(=O)O)NC(=O)[C@H](CO)NC(=O)[C@@H](NC(=O)[C@H](Cc1ccccc1)NC(=O)[C@@H](NC(=O)CNC(=O)[C@H](Cc1c[nH]cn1)NC(=O)[C@H](CO)NC(=O)CCc1c[nH]cn1)[C@@H](C)O)[C@@H](C)O)C(C)C)C(=O)N[C@H](C(=O)O)[C@@H](C)O)C(=O)O)C(=O)O)C(=O)O)C(=O)O [Example 14, N^ϵ28-[(4S)-4-[[(4S)-4-[[(4S)-4-[[(4S)-4-acetamido-4-carboxybutanoyl]amino]-4-carboxybutanoyl]amino]-4-carboxybutanoyl]amino]-4-carboxybutanoyl]-[Imp1, His3, Glu15, Glu21, Leu27, Lys28]-Glucagon] (Desaminohistidyl-SHGTFTSDYSKYLESRRAQEFVQWLLK([γGlu-γGlu-γGlu-γGlu-Ac])T-OH) | 6 | 98 |
| CC(=O)N[C@@H](CCC(=O)N[C@@H](CCC(=O)N[C@@H](CCC(=O)N[C@@H](CCC(=O)NCCCC[C@H](NC(=O)[C@H](CO)NC(=O)[C@H](CC(C)C)NC(=O)[C@H](CC(C)C)NC(=O)[C@H](Cc1c[nH]c2ccccc12)NC(=O)[C@H](CCC(N)=O)NC(=O)[C@@H](NC(=O)[C@H](Cc1ccccc1)NC(=O)[C@H](CCC(=O)O)NC(=O)[C@H](CCC(N)=O)NC(=O)[C@H](C)NC(=O)[C@H](CCCNC(=N)N)NC(=O)[C@H](CCCNC(=N)N)NC(=O)[C@H](CO)NC(=O)[C@H](CCC(=O)O)NC(=O)[C@H](CC(C)C)NC(=O)[C@H](Cc1ccc(O)cc1)NC(=O)[C@H](CCCCN)NC(=O)[C@H](CO)NC(=O)[C@H](Cc1ccc(O)cc1)NC(=O)[C@H](CC(=O)O)NC(=O)[C@H](CO)NC(=O)[C@@H](NC(=O)[C@H](Cc1ccccc1)NC(=O)[C@@H](NC(=O)CNC(=O)[C@H](Cc1c[nH]cn1)NC(=O)[C@H](CO)NC(=O)CCc1c[nH]cn1)[C@@H](C)O)[C@@H](C)O)C(C)C)C(=O)O)C(=O)O)C(=O)O)C(=O)O)C(=O)O [Example 15, N^ϵ29-[(4S)-4-[[(4S)-4-[[(4S)-4-[[(4S)-4-acetamido-4-carboxybutanoyl]amino]-4-carboxybutanoyl]amino]-4-carboxybutanoyl]amino]-4-carboxybutanoyl]-[Imp1, His3, Glu15, Glu21, Leu27, Ser28, Lys29]-Glucagon] (Desaminohistidyl-SHGTFTSDYSKYLESRRAQEFVQWLLSK([γGlu-γGlu-γGlu-γGlu-Ac])-OH) | 4 | 88 |
| CC(=O)N[C@@H](CCC(=O)N[C@@H](CCC(=O)N[C@@H](CCC(=O)N[C@@H](CCC(=O)NCCCC[C@H](NC(=O)[C@@H](NC(=O)[C@H](CO)NC(=O)[C@H](CC(C)C)NC(=O)[C@H](CC(C)C)NC(=O)[C@H](Cc1c[nH]c2ccccc12)NC(=O)[C@H](CCC(N)=O)NC(=O)[C@@H](NC(=O)[C@H](Cc1ccccc1)NC(=O)[C@H](CCC(=O)O)NC(=O)[C@H](CCC(N)=O)NC(=O)[C@H](C)NC(=O)[C@H](CCCNC(=N)N)NC(=O)[C@H](CCCNC(=N)N)NC(=O)[C@H](CO)NC(=O)[C@H](CCC(=O)O)NC(=O)[C@H](CC(C)C)NC(=O)[C@H](Cc1ccc(O)cc1)NC(=O)[C@H](CCCCN)NC(=O)[C@H](CO)NC(=O)[C@H](Cc1ccc(O)cc1)NC(=O)[C@H](CC(=O)O)NC(=O)[C@H](CO)NC(=O)[C@@H](NC(=O)[C@H](Cc1ccccc1)NC(=O)[C@@H](NC(=O)CNC(=O)[C@H](Cc1c[nH]cn1)NC(=O)[C@H](CO)NC(=O)CCc1c[nH]cn1)[C@@H](C)O)[C@@H](C)O)C(C)C)[C@@H](C)O)C(=O)O)C(=O)O)C(=O)O)C(=O)O)C(=O)O [Example 16, N^α([Imp1, His3, Glu15, Glu21, Leu27, Ser28]-Glucagonyl)-N{Epsilon}[(4S)-4-[[(4S)-4-[[(4S)-4-[[(4S)-4-acetamido-4-carboxybutanoyl]amino]-4-carboxybutanoyl]amino]-4-carboxybutanoyl]amino]-4-carboxybutanoyl]Lys] (Desaminohistidyl-SHGTFTSDYSKYLESRRAQEFVQWLLSTK([γGlu-γGlu-γGlu-γGlu-Ac])-OH) | 4 | 61 |
